Reference: US20130281397A1, “TREATMENT OF DISEASES BY EPIGENETIC REGULATION” (RVX Therapeutics Inc., priority 2012, published 2013)
Where a name gives a salt, the structure may show the parent alone.

Molecular target: T1, Brd4 bromodomain 1 (Homo sapiens, UniProt O60885)
T1 construct: made in house; host or cells: E. coli BL21(DE3)
Assay: Inhibition of binding of tetra-acetylated histone H4 and Brd4 bromodomain 1 by TR-FRET
Conditions: His-tagged bromodomain 200 nM, biotinylated tetra-acetylated histone H4 peptide 25-50 nM, 2 hours at room temperature
Method: Proteins were cloned and overexpressed with a N-terminal 6×His tag, then purified by nickel affinity followed by size exclusion chromatography. Briefly, E. coli BL21(DE3) cells were transformed with a recombinant expression vector encoding N-terminally […] tagged bromodomains from Brd2, Brd3, or Brd4. Cell cultures were incubated at 37° C. with shaking to the appropriate density and induced overnight with IPTG. The supernatant of lysed cells was loaded onto Ni-IDA column for purification. Eluted protein was pooled, concentrated and further purified by size exclusion chromatography. Fractions representing monomeric protein were pooled, concentrated, aliquoted, and frozen at −80° C. for use in subsequent experiments.
For inhibition assays, serially diluted test compound was added to these reactions in a 0.2% final concentration of DMSO. Final buffer concentrations were 30 mM HEPES pH 7.4, 30 mM NaCl, 0.3 mM CHAPS, 20 mM phosphate pH 7.0, 320 mM KF, 0.08% BSA). […] The binding inhibitory activity was shown by a decrease in 665 nm fluorescence relative to 620 nm. IC50 values were determined from a dose response curve.

FRET activity (<50 uM) | Structure (SMILES)
Active | COc1cc(OC)c2c(=O)[nH]c(-c3cc(C)c(OCCOC(=O)NC4CCCCC4)c(C)c3)nc2c1 [Example 102, 2-(4-(5,7-dimethoxy-4-oxo-3,4-dihydroquinazolin-2-yl)-2,6-dimethylphenoxy)ethyl cyclohexylcarbamate]
Inactive | Cc1cc(-c2nc3ccc(Br)cc3c(=O)[nH]2)cc(C)c1O [Example 88, 6-bromo-2-(4-hydroxy-3,5-dimethylphenyl)quinazolin-4(3H)-one]
Active | CNC(=O)OCCOc1c(C)cc(-c2nc3cc(OC)cc(OC)c3c(=O)[nH]2)cc1C [Example 100, 2-(4-(5,7-Dimethoxy-4-oxo-3,4-dihydroquinazolin-2-yl)-2,6-dimethyl-phenoxy)ethyl methylcarbamate]
Active | CNC(=O)c1ccccc1C(=O)NCCOc1c(C)cc(-c2nc3cc(OC)cc(OC)c3c(=O)[nH]2)cc1C [Example 93, N1-(2-(4-(5,7-dimethoxy-4-oxo-3,4-dihydroquinazolin-2-yl)-2,6-dimethylphenoxy)ethyl)-N2-methylphthalamide]
Active | COc1cc(OC)c2c(=O)[nH]c(-c3cccc(C)n3)nc2c1 [Example 81, 5,7-dimethoxy-2-(6-methylpyridin-2-yl)quinazolin-4(3H)-one]
Active | COc1cc(OC)c2c(=O)[nH]c(-c3cc(C)c(OCCO)c(C)c3)cc2c1 [Example 6, 3-(4-(2-hydroxyethoxy)-3,5-dimethylphenyl)-6,8-dimethoxyisoquinolin-1(2H)-one]
Inactive | COc1ccc(NC(=O)NCCOc2c(C)cc(-c3nc4cc(OC)cc(OC)c4c(=O)[nH]3)cc2C)cc1 [Example 110, 1-(2-(4-(5,7-dimethoxy-4-oxo-3,4-dihydroquinazolin-2-yl)-2,6-dimethylphenoxy)ethyl)-3-(4-methoxyphenyl)urea]
Active | COc1cc(OC)c2c(=O)[nH]c(-c3cccnc3)nc2c1 [Example 22, 5,7-dimethoxy-2-(pyridin-3-yl)quinazolin-4(3H)-one]
Active | COc1cc(OC)c2c(=O)[nH]c(-c3ccc(OCCO)c(C)c3)nc2c1 [Example 91, 2-(4-(2-hydroxyethoxy)-3-methylphenyl)-5,7-dimethoxyquinazolin-4(3H)-one]
Active | COc1cc(OC)c2c(=O)[nH]c(-c3cc(C)c(OCCNC(=O)N(C)C)c(C)c3)nc2c1 [Example 112, 3-(2-(4-(5,7-dimethoxy-4-oxo-3,4-dihydroquinazolin-2-yl)-2,6-dimethylphenoxy)ethyl)-1,1-dimethylurea]
Active | COc1cc(OC)c2c(=O)[nH]c(-c3ccc(OCC(=O)O)cc3)nc2c1 [Example 20, 2-(4-(5,7-dimethoxy-4-oxo-3,4-dihydroquinazolin-2-yl)phenoxy)acetic acid]
Inactive | COc1ccc(S(=O)(=O)NCCOc2c(C)cc(-c3nc4cc(OC)cc(OC)c4c(=O)[nH]3)cc2C)cc1 [Example 94, N-(2-(4-(5,7-dimethoxy-4-oxo-3,4-dihydroquinazolin-2-yl)-2,6-dimethylphenoxy)ethyl)-4-methoxybenzenesulfonamide]
Active | COc1cc(OC)c2c(=O)[nH]c(-c3cc(C)c(OC)c(C)c3)nc2c1 [Example 84, 5,7-dimethoxy-2-(4-methoxy-3,5-dimethylphenyl)quinazolin-4(3H)-one]
Active | COc1cc(OC)c2c(=O)[nH]c(-c3cccc(-c4ccc(S(C)(=O)=O)cc4)n3)nc2c1 [Example 80, 5,7-dimethoxy-2-(6-(4-(methylsulfonyl)phenyl)pyridin-2-yl)quinazolin-4(3H)-one]
Inactive | COc1cc(OC)c2c(=O)[nH]c(-c3cc(C)c(OCCNS(=O)(=O)c4ccc(Cl)cc4)c(C)c3)nc2c1 [Example 95, 4-chloro-N-(2-(4-(5,7-dimethoxy-4-oxo-3,4-dihydroquinazolin-2-yl)-2,6-dimethylphenoxy)ethyl)benzenesulfonamide]
Inactive | COc1cc(OC)c2c(=O)[nH]c(-c3cc(C)c(OCc4ccccc4)c(C)c3)nc2c1 [Example 90, 2-(4-(benzyloxy)-3,5-dimethylphenyl)-5,7-dimethoxyquinazolin-4(3H)-one]
Active | COc1cccc2nc(-c3cc(C)c(OCCO)c(C)c3)[nH]c(=O)c12 [Example 78, 2-(4-(2-hydroxyethoxy)-3,5-dimethylphenyl)-5-methoxyquinazolin-4(3H)-one]

FRET activity (<50 uM) | Structure (SMILES)
Inactive | COc1cc(OC)c2c(=O)[nH]c(-c3cccc(-c4ccc(SC)cc4)n3)nc2c1 [Example 82, 5,7-dimethoxy-2-(6-(4-(methylthio)phenyl)pyridin-2-yl)quinazolin-4(3H)-one]
Inactive | COc1cc(O)nc2cc(-c3cc(C)c(O)c(C)c3)[nH]c(=O)c12 [Example 9, 2-hydroxy-7-(4-hydroxy-3,5-dimethylphenyl)-4-methoxy-1,6-naphthyridin-5(6H)-one]
Active | COc1cc(OC)c2c(=O)[nH]c(-c3ccc(O)c(C)c3)nc2c1 [Example 92, 2-(4-hydroxy-3-methylphenyl)-5,7-dimethoxyquinazolin-4(3H)-one]
Inactive | COc1cc(OC)c2c(=O)[nH]c(-c3ccncc3)nc2c1 [Example 28, 5,7-dimethoxy-2-(pyridin-4-yl)quinazolin-4(3H)-one]
Active | COc1cc(OC)c2c(=O)[nH]c(-c3ccc(CN4CCOCC4)cc3)nc2c1 [Example 61, 5,7-dimethoxy-2-(4-(morpholinomethyl)phenyl)quinazolin-4(3H)-one]
Inactive | COc1cc2cc(-c3cc(C)c(O)c(C)c3)n(C)c(=O)c2c(OC)c1CN1CCOCC1 [Example 14, 3-(4-hydroxy-3,5-dimethylphenyl)-6,8-dimethoxy-2-methyl-7-(morpholinomethyl)isoquinolin-1(2H)-one]
Active | COc1cc(OC)c2c(=O)[nH]c(-c3cc(C)c(OCCNC(C)=O)c(C)c3)nc2c1 [Example 106, N-(2-(4-(5,7-dimethoxy-4-oxo-3,4-dihydroquinazolin-2-yl)-2,6-dimethylphenoxy)ethyl)acetamide]
Active | COc1cc(OC)c2c(=O)[nH]c(-c3cc(C)c(OCCNC(=O)c4ccc(C)cc4)c(C)c3)nc2c1 [Example 101, N-(2-(4-(5,7-Dimethoxy-4-oxo-3,4-dihydroquinazolin-2-yl)-2,6-dimethylphenoxy)ethyl)-4-methylbenzamide]
Inactive | COc1ccc(C(=O)NCCOc2c(C)cc(-c3nc4cc(OC)cc(OC)c4c(=O)[nH]3)cc2C)cc1 [Example 105, N-(2-(4-(5,7-dimethoxy-4-oxo-3,4-dihydroquinazolin-2-yl)-2,6-dimethylphenoxy)ethyl)-4-methoxybenzamide]
Active | COc1cc(OC)c2c(=O)[nH]c(-c3ccc(CN4CCN(C)CC4)cc3)nc2c1 [Example 54, 5,7-dimethoxy-2-(4-((4-methylpiperazin-1-yl)methyl)phenyl)quinazolin-4(3H)-one]
Active | N=C(N)NCCC[C@H](N)C(=O)Oc1ccc(-c2cc3ccccc3c(=O)[nH]2)cc1 (stereo in doubt) [Example 2, 4-(1-Oxo-1,2-dihydroisoquinolin-3-yl)phenyl 2-amino-5-guanidinopentanoate trihydrochloride]
Active | COc1cc(OC)c2c(=O)[nH]c(-c3cc(C)c(OCCN4CCN(C)CC4)c(C)c3)cc2c1 [Example 18, 3-(3,5-dimethyl-4-(2-(4-methylpiperazin-1-yl)ethoxy)phenyl)-6,8-dimethoxyisoquinolin-1(2H)-one]
Inactive | COc1cc(OC)c2c(=O)[nH]c(-c3cc(C)nc(Cl)c3)nc2c1 [Example 83, 2-(2-chloro-6-methylpyridin-4-yl)-5,7-dimethoxyquinazolin-4(3H)-one]
Active | COc1cc(OC)c2c(=O)[nH]c(-c3cc(C)c(OCCNC(=O)c4ccccc4)c(C)c3)nc2c1 [Example 107, N-(2-(4-(5,7-dimethoxy-4-oxo-3,4-dihydroquinazolin-2-yl)-2,6-dimethylphenoxy)ethyl)benzamide]
Active | COc1cc(OC)c2c(=O)[nH]c(-c3cc(C)cc(C)c3)nc2c1 [Example 86, 2-(3,5-dimethylphenyl)-5,7-dimethoxyquinazolin-4(3H)-one]
Active | COc1cc(OC)c2c(=O)[nH]c(-c3cc(C)c(/N=C/N(C)C)c(C)c3)nc2c1 [Example 87, (E)-N′-(4-(5,7-dimethoxy-4-oxo-3,4-dihydroquinazolin-2-yl)-2,6-dimethylphenyl)-N,N-dimethylformimidamide]
Active | COc1cc(OC)c2c(=O)[nH]c(-c3cc(C)c(N)c(C)c3)nc2c1 [Example 85, 2-(4-amino-3,5-dimethylphenyl)-5,7-dimethoxyquinazolin-4(3H)-one]

Structure (SMILES) | FRET activity (<50 uM)
Cc1cc(-c2nc3ccc(Br)cc3c(=O)[nH]2)cc(C)c1OCCO [Example 89, 6-bromo-2-(4-(2-hydroxyethoxy)-3,5-dimethylphenyl)quinazolin-4(3H)-one] | Inactive
